Measured values: patent publication US20040219202A1, “Pharmaceutical composition comprising lipids comprising a polar and a nonpolar moiety” (priority 2001, published 2004)
Entries after “also recorded” stand apart in the source; their conditions may differ.

Assays:
[1] = literature statement; cited from earlier work
COS-7 cells = assay: Transfection of COS-7 cells with LMDs (liposome:mu:DNA), β-galactosidase reporter assay; assay type: cell-based; conditions: for Transfection relative to DOPE (fraction): CDAN:Helper Lipid, summary
Protocol: (§1) Purity of the lipids was checked by TLC or HPLC. All lipids were stored as stock solutions in anhydrous CH2Cl2, at concentrations of either 5 mg/ml or 10 mg/ml, at −80° C., under Ar. In order to prepare cationic liposomes, lipids were added to a round-bottomed flask, via syringe, under Ar, and further freshly distilled CH2Cl2 was added, if necessary, to give a concentration of around 2.5 mg/ml. Then, 4 mM HEPES pH 7.0 (1 ml) was added, and the biphasic system was swirled to mix. A liposomal suspension was created by removing the organic solvent under reduced pressure at 25° C., followed by sonication for 2-5 min. in a water bath sonicator. Doubly-distilled water was added, if necessary, to return the total volume to 1 ml. All liposomal solutions were prepared at a final concentration of 5 mg/ml. The pH of the liposomal suspension was checked by pH Boy (Camlab Ltd., Over, Cambridgeshire, UK) and adjusted to pH 7.0±0.1 with concentrated aqueous solutions of HCl and NaOH.
(§2) Liposomes were extruded (Extruder, Northern Upids, Inc., Vancouver, BC, Canada) by passing through two 100 nm polycarbonate filters (Isopore™ Membrane Filters, Millipore (UK) Ltd., Watford, Hertfordshire, UK) ten times. For each preparation, the size distribution of liposomes was measured by photon correlation spectroscopy (PCS) (Coulter® N4 Plus Submicron Particle Sizer, Beckman Coulter, High Wycombe, Buckinghamshire, UK). For phospholipid-containing liposomes, phospholipid concentrations were checked by the Stewart assay.^23 In each case, a final lipid concentration of 4.7±0.1 mg/ml was observed. For non-phospholipid containing liposomes, lipid loss was also inevitable on extrusion. For all fast-extruding liposomal suspensions, total lipid concentration was assumed to be 4.7 mg/ml. For slower extrusions, total lipid concentrations were assumed to be 4.3 mg/ml. Very slowly extruding liposomes were extruded three times only and assumed to be 4.7 mg/ml.
(§3) Plasmid DNA containing the β-galactosidase gene (pNGVL1-nt-beta-gal; 7.53 kbp) was stored as frozen aliquots at −80° C., at a concentration of 1.2 mg/ml; μ (mu) peptide (adenoviral core peptide [H2N-Met-Arg-Arg-Ala-His-His-Arg-Arg-Arg-Arg-Ala-Ser-His-Arg-Arg-Met-Arg-Gly-Gly-CO2H]) was synthesised as described previously,^7 and maintained at 4° C. in aliquots of 1 mg/ml. Mu-DNA complexes were made by adding plasmid DNA to mu in 4 mM HEPES at a ratio of 1:0.6 (w/w) with fast vortexing. LMDs were prepared by complexing mu-DNA particles with cationic liposomes (as prepared above) in a ratio of 1:12 (w/w), such that all LMDs for all formulations were substantially cationic. For each preparation, the size distribution of LMDs was measured by PCS.
COS-7 cells were maintained in DMEM/10% FCS/1% penicillin-streptomycin (Gibco™) at 37° C./5% CO2 in a humidified atmosphere. Twenty-four hours prior to transfection, 10 000 cells per well were seeded in 48-well microtitre plates (Coming Costar) in 500 μl medium. Plasmid DNA and Transfast™ controls were prepared as above. 5 μl (0.5 μg DNA) of LMD formulation was added to each well. All experiments were performed in quadruplicate. The plate was swirled for 30 s, and incubated for 1 h at 37° C. Medium was then removed, and 500 μl of fresh medium was added. The cells were incubated at 37° C. for a further 24 h.
Medium was aspirated from the wells and the cell layer was washed with phosphate buffered saline (PBS) (Gibco™). The cells of each well were lysed in 150 μl lysis reagent (prepared according to the supplier's protocol; β-Gal Reporter Gene Assay, Roche Diagnostics GmbH, D-68305 Mannheim, Germany) at room temperature for 30 min. After lysis, […], 50 μl and 20 μl, of each cell suspension were used for the determination of β-galactosidase activity and for the determination of total cellular protein (to normalise results), respectively.
In the β-gal assay, 100 μl of the substrate reagent was added to 50 μl of the cell suspension in a white 96-well microplate (Coming Costar). […]

Panc-1 cells = assay: Transfection of Panc-1 cells with LMDs (liposome:mu:DNA), β-galactosidase reporter assay; assay type: cell-based
Protocol: as §1, §2, §3
Panc-1 cells were maintained in RPMI/10% FCS/1% penicillin-streptomycin (Gibco™, Invitrogen Corporation, Paisley, Scotland, UK) at 37° C./5% CO2 in a humidified atmosphere. Twenty-four hours prior to transfection, 30 000 cells per well were seeded in 48 well microtitre plates (Corning Costar, Merck Ltd., Lutterworth, Leicestershire, UK) in 500 μl medium. As a control, plasmid DNA (0.5 μg in 200 μl medium) was added to a well. As a positive control, 1.5 μl Transfast™ (Promega Corporation, Madison, Wis., USA; prepared according to the supplier's protocol) in 200 μl medium was complexed with plasmid DNA (0.5 μg) and added to a well. 5 μl (0.5 μg DNA) of LMD formulation was added to each well. All experiments were performed in quadruplicate. The plate was swirled for 30 s, and incubated for 1 h at 37° C. Medium was then removed, and 500 μl of fresh medium was added. The cells were incubated at 37° C. for a further 24 h.
Medium was aspirated from the wells and the cell layer was washed with phosphate buffered saline (PBS) (Gibco™). The cells of each well were lysed in 150 μl lysis reagent (prepared according to the supplier's protocol; β-Gal Reporter Gene Assay, Roche Diagnostics GmbH, D-68305 Mannheim, Germany) at room temperature for 30 min. […]

[2] = LMDs of CDAN:Helper Lipid, 1:1 liposomes, DOPC-analogues, FIG. 13
[3] = LMDs of CDAN:Helper Lipid, 1:1 liposomes, FIG. 14
[4] = LMDs of CDAN:Helper Lipid, 1:1 liposomes, DOPE-analogues, FIG. 16
[5] = LMDs of CDAN:Helper Lipid, 2:3 liposomes, FIG. 17
[6] = LMDs of CDAN:Helper Lipid, 3:2 liposomes, FIG. 15
[7] = LMDs of pure DOTAP or DOTAP-analogue liposomes, FIG. 20
[8] = LMDs of DOPE:Cationic Lipid, 1:1 liposomes, FIG. 21

CCCCCCCCCCCCC#CC#CCCCCCCCCCC(=O)NCCN(CCNC(=N)N)CCNC(=N)N [BGDA, bisguanidinium-diacetylene]
In vitro transfection in cationic liposome formulations [1]: highly efficient

CCCCCCCCCCCCCC#CCCC(=O)OC[C@H](COP(=O)([O-])OCC[N+](C)(C)C)OC(=O)CCC#CCCCCCCCCCCCCC [DO(4-yne)PC]
Transfection (β-galactosidase activity) (COS-7 cells; [2]): a fall in transfection ability | Transfection (β-galactosidase activity) (Panc-1 cells; LMDs of CDAN:Helper Lipid, 1:1 (mol/mol) liposomes, DOPC-analogues, FIG. 12): almost complete loss of any transfection ability

CCCCCCCCCCCCCC#CCCC(=O)OC[C@H](COP(=O)(O)OCCN)OC(=O)CCC#CCCCCCCCCCCCCC [DO(4-yne)PE]
Transfection relative to DOPE (fraction) (COS-7 cells; 1:1 liposomes): about 1/3 | Fall in transfection on substituting DOPE (COS-7 cells; [3]): about 67% | Transfection (β-galactosidase activity) (Panc-1 cells; CDAN:Helper Lipid, 2:3, repeat, liposomes not fresh, LMDs fresh, FIG. 18): fallen to around that of Transfast | Transfection (β-galactosidase activity) (Panc-1 cells; [4]): transfect well and approximately to the same degree; also recorded: all transfect equally well | Transfection (β-galactosidase activity) (Panc-1 cells; [5]): transfect the best, up to five times better than DOPE | Transfection (β-galactosidase activity) (Panc-1 cells; [6]): transfect very poorly

CCCCCCCCC#CCCCCCCCC(=O)OCC(C[N+](C)(C)C)OC(=O)CCCCCCCC#CCCCCCCCC.COS(=O)(=O)[O-] (stereo not drawn) [DO(9-yne)TAP]
Transfection (β-galactosidase activity) (COS-7 cells; [7]): transfects around one and-a-half times better than standard DOTAP; also recorded: transfect as well as DOTAP liposomes | Transfection (β-galactosidase activity) (Panc-1 cells; LMDs of Cholesterol:Cationic Lipid, 1:1 liposomes, FIG. 22): transfects as well as DOTAP | Transfection (β-galactosidase activity) (Panc-1 cells; [8]): a small increase in transfection

CCCC#CCCCCCCCCCCCCC(=O)OC[C@H](COP(=O)(O)OCCN)OC(=O)CCCCCCCCCCCCC#CCCC [DO(14-yne)PE]
Transfection relative to DOPE (fraction) (COS-7 cells; 1:1 liposomes): about 1/3 | Fall in transfection on substituting DOPE (COS-7 cells; [3]): about 67% | Transfection (β-galactosidase activity) (Panc-1 cells; [4]): transfects around half as well as DOPE | Transfection (β-galactosidase activity) (Panc-1 cells; [5]): transfects the least well out of the monoacetylenic analogues | Transfection (β-galactosidase activity) (Panc-1 cells; [6]): transfect very poorly

CCCC#CCCCCCCCCCCCCC(=O)OCC(C[N+](C)(C)C)OC(=O)CCCCCCCCCCCCC#CCCC.COS(=O)(=O)[O-] (stereo not drawn) [DO(14-yne)TAP]
Transfection (β-galactosidase activity) (COS-7 cells; [7]): almost total loss of transfection activity; also recorded: almost no transfection at all | Loss of transfection activity on replacing DOTAP (Panc-1 cells; Cholesterol:Cationic Lipid, 1:1 liposomes, FIG. 22): around 30% | Transfection (β-galactosidase activity) (Panc-1 cells; LMDs composed entirely of DOTAP or DOTAP-analogue liposomes, FIG. 19): a six-fold improvement on standard DOTAP; also recorded: transfect up to six times better than DOTAP; also recorded: transfects better than DOTAP | Transfection (β-galactosidase activity) (Panc-1 cells; [8]): a seven-fold increase

CCCCCCCC/C=C\CCCCCCCC(=O)OC[C@H](COP(=O)([O-])OCC[N+](C)(C)C)OC(=O)CCCCCCC/C=C\CCCCCCCC [DOPC]
Transfection (β-galactosidase activity) (COS-7 cells; [2]): transfect equally well | In vitro transfection in cationic liposome formulations [1]: eliminate or severely attenuate transfection

CCCCCCCC/C=C\CCCCCCCC(=O)OCC(COP(=O)(O)OCCN)OC(=O)CCCCCCC/C=C\CCCCCCCC (stereo not drawn) [DOPE, dioleoylphosphatidylethanolamine]
Transfection (β-galactosidase activity) (COS-7 cells; LMDs of CDAN:Helper Lipid, 1:1 liposomes, DOPE-analogues, FIG. 14): transfection levels are high and approximately the same; also recorded: transfect COS-7 cells very well and to a similar degree | Transfection (β-galactosidase activity) (Panc-1 cells; [4]): transfect well and approximately to the same degree; also recorded: all transfect equally well | Transfection (β-galactosidase activity) (Panc-1 cells; [5]): below that of Transfast | Transfection (β-galactosidase activity) (Panc-1 cells; [6]): transfects around as twice as well as the nearest acetylenic analogue; also recorded: transfects better than all the monoacetylenic analogues
